# Results: patent publication US20240327364A1, “THERAPEUTIC TARGETING OF GPR68 TO INDUCE FERROPTOSIS” (University Of Maryland, Baltimore, priority 2023, published 2024)
# Marks after values point to notes of the source that are not given here.
# Columns and labels:
# [1] = biological target: T1, PAK2 (Homo sapiens, UniProt Q13177); test: KinomeScan; assay type: binding; details: read-out: % Control
# T1 construct: purchased DiscoveRx
# [2] = biological target: T2, GPR14 (Homo sapiens, UniProt Q9UKP6); test: GPCR Profiler; assay type: cell-based; details: 12.5 uM
# T2 construct: host or cells: Chem-1 cells expressing Gα15
# [3] = biological target: T3, AURKC (Homo sapiens, UniProt Q9UQB9); test: KinomeScan; assay type: binding; details: read-out: % Control
# T3 construct: purchased DiscoveRx (Fremont, CA)
# [4] = biological target: T4, ABL2 (Homo sapiens, UniProt P42684); test: KinomeScan; assay type: binding; details: read-out: % Control
# T4 construct: purchased DiscoveRx
# T4 sequence (P42684 288-539 limits assumed): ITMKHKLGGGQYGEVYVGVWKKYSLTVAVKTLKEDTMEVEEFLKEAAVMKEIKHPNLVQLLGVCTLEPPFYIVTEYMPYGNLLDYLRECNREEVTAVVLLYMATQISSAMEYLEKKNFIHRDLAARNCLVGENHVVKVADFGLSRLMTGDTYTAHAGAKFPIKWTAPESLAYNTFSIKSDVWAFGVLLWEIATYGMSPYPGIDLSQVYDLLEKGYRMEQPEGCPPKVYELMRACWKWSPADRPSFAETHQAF
# [5] = biological target: T5, FGFR3 (Homo sapiens, UniProt P22607); test: KinomeScan; assay type: binding; details: read-out: % Control
# T5 construct: purchased DiscoveRx (Fremont, CA)
# T5 sequence (P22607 23-806): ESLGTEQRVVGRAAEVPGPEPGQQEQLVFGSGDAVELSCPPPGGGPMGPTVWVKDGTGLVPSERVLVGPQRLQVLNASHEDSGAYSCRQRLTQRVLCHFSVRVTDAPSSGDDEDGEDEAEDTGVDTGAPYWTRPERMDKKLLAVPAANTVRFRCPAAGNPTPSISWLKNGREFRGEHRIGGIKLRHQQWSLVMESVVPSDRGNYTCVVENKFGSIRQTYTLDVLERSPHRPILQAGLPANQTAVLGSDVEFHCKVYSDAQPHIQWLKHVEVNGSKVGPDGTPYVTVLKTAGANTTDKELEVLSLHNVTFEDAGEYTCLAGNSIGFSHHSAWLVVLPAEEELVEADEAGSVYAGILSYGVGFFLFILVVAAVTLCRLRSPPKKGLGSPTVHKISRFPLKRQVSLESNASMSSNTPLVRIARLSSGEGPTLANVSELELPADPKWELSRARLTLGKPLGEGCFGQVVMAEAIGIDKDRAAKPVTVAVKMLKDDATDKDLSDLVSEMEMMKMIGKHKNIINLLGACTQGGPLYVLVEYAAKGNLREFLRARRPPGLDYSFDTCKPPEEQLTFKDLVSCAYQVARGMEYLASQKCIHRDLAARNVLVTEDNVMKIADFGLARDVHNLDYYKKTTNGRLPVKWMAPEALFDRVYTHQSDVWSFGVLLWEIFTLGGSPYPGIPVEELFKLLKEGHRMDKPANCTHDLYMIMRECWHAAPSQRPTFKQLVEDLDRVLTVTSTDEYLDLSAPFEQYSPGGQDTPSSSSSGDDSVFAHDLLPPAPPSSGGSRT
# [6] = biological target: T6, XCR1 (Homo sapiens, UniProt P46094); test: GPCR Profiler; assay type: cell-based
# T6 construct: host or cells: Chem-1 cells expressing Galpha15
# T6 sequence (P46094 whole entry, species assumed): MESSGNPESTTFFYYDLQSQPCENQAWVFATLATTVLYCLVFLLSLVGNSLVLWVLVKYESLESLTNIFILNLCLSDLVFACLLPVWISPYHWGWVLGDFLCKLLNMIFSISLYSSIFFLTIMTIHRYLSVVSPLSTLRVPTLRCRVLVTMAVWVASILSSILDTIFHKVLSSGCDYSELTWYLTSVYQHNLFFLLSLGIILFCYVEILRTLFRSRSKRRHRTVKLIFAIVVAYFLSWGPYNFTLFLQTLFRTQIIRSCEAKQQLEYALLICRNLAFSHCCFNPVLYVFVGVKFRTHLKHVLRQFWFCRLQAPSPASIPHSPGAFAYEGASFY
# [7] = biological target: T7, DMPK (Homo sapiens, UniProt Q09013); test: KinomeScan; assay type: binding; details: read-out: % Control
# T7 construct: purchased DiscoveRx (Fremont, CA), KinomeScan service
# [8] = biological target: T8, D2 (Homo sapiens, UniProt P14416); test: GPCR Profiler; assay type: cell-based
# T8 construct: host or cells: Chem-1 cells with Gα15
# T8 sequence (P14416 whole entry): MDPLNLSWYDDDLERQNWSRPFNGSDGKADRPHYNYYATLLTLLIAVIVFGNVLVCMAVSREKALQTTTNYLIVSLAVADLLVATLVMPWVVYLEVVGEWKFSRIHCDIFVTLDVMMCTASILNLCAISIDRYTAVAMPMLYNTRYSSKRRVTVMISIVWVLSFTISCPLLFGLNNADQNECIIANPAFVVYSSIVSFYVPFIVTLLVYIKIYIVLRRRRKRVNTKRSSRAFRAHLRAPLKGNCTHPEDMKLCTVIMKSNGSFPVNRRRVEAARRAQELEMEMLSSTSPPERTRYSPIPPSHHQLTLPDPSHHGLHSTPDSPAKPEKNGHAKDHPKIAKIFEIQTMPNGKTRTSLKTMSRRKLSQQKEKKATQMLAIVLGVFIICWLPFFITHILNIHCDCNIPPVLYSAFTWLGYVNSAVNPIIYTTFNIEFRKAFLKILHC
# [9] = biological target: T9, JAK1(JH2domain-pseudokinase) (Homo sapiens, UniProt P23458); test: KinomeScan; assay type: binding; details: read-out: % Control
# T9 construct: JAK1(JH2domain-pseudokinase); purchased DiscoveRx (Fremont, CA)
# [10] = biological target: T10, VRK2 (Homo sapiens, UniProt Q86Y07); test: KinomeScan; assay type: binding; details: read-out: % Control
# T10 construct: purchased DiscoveRx
# [11] = biological target: T11, CDK7 (Homo sapiens, UniProt P50613); test: KinomeScan; assay type: binding; details: read-out: % Control
# T11 construct: purchased DiscoveRx (KinomeScan service)
# [12] = biological target: T12, ACVR1B (Homo sapiens, UniProt P36896); test: KinomeScan; assay type: binding; details: read-out: % Control
# T12 construct: purchased DiscoveRx
# [13] = biological target: T13, FLT3 (Homo sapiens, UniProt P36888); test: KinomeScan; assay type: binding; details: read-out: % Control
# T13 construct: purchased DiscoveRx (Fremont, CA)
# [14] = biological target: T14, ALK (Homo sapiens, UniProt Q9UM73); test: KinomeScan; assay type: binding; details: read-out: % Control
# T14 construct: purchased DiscoveRx (Fremont, CA)
# [15] = biological target: T15, LCK (Homo sapiens, UniProt P06239); test: KinomeScan; assay type: binding; details: read-out: % Control
# T15 construct: purchased DiscoveRx
# T15 sequence (P06239 whole entry): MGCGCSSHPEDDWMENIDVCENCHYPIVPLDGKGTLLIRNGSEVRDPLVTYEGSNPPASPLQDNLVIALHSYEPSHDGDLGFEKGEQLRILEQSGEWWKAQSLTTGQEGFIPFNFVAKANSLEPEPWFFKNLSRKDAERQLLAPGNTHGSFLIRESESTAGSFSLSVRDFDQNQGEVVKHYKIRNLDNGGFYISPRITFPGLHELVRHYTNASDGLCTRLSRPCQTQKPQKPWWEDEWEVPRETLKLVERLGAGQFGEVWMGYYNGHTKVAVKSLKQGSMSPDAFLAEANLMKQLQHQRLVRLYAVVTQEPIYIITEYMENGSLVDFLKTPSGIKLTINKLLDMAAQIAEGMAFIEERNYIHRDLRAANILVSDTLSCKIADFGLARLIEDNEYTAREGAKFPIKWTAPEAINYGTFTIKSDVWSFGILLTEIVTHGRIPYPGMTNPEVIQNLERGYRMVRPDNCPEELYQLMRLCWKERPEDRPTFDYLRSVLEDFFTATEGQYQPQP
# [16] = biological target: T16, NMU2 (Homo sapiens, UniProt Q9GZQ4); test: GPCR Profiler; assay type: cell-based
# T16 construct: host or cells: Chem-1 cells expressing Gα15
# T16 sequence (Q9GZQ4 whole entry, species assumed): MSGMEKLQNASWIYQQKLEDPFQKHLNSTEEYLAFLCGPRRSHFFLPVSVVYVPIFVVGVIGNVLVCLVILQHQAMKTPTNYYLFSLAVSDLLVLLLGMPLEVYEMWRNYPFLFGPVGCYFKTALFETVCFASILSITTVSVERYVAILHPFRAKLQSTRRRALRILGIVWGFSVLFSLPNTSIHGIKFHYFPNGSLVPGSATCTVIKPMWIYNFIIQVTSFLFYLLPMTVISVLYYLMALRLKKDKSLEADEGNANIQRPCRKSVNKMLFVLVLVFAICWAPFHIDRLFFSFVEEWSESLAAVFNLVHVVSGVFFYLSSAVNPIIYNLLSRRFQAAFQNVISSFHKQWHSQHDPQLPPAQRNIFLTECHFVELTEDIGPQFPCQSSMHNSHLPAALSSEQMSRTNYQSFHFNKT
# [17] = biological target: T17, GPR99 (Homo sapiens, UniProt Q96P68); test: GPCR Profiler; assay type: cell-based
# T17 construct: host or cells: Chem-1 cells with promiscuous Gα15
# [18] = biological target: CDKL3 (Homo sapiens, UniProt Q8IVW4); test: KinomeScan; assay type: binding; details: read-out: % Control
# [19] = biological target: T18, GAK (Homo sapiens, UniProt O14976); test: KinomeScan; assay type: binding; details: read-out: % Control
# T18 construct: purchased DiscoveRx (Fremont, CA)
# [20] = biological target: T19, OPRK1 (Homo sapiens, UniProt P41145); test: GPCR Profiler; assay type: cell-based
# T19 construct: host or cells: Chem-1 cells expressing Gα15
# T19 sequence (P41145 whole entry, species assumed): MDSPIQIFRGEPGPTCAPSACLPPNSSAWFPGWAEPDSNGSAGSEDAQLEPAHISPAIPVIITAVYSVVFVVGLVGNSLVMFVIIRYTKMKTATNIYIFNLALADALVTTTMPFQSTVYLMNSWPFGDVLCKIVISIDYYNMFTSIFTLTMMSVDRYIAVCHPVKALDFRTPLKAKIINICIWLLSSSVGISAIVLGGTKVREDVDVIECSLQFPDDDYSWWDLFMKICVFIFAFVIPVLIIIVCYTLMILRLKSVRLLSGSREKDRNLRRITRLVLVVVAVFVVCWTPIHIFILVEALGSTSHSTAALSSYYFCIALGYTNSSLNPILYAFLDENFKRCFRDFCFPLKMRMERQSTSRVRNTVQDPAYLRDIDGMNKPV
# [21] = biological target: T20, 5-HT2C (Homo sapiens, UniProt P28335); test: GPCR Profiler; assay type: cell-based
# T20 construct: host or cells: Chem-1 cells with promiscuous Gα15
# T20 sequence (P28335 33-458): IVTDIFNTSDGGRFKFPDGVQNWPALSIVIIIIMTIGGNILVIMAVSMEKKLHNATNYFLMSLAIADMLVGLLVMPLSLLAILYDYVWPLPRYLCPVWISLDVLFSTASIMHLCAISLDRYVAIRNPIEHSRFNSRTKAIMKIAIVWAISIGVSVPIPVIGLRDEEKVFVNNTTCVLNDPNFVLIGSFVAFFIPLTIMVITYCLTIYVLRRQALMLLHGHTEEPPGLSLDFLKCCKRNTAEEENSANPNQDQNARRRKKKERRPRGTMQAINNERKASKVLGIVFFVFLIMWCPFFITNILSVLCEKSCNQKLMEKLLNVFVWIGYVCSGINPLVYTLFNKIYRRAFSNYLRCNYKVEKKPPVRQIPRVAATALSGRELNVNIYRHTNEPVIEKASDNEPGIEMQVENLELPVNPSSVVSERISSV
# [22] = biological target: T21, IGF1R (Homo sapiens, UniProt P08069); test: KinomeScan; assay type: binding; details: read-out: % Control
# T21 construct: purchased DiscoveRx (Fremont, CA)
# [23] = biological target: T22, JAK2(JH1domain-catalytic) (Homo sapiens, UniProt O60674); test: KinomeScan; assay type: binding; details: read-out: % Control
# T22 construct: JAK2(JH1domain-catalytic); purchased DiscoveRx (Fremont, CA)
# T22 sequence (O60674 849-1124 limits assumed): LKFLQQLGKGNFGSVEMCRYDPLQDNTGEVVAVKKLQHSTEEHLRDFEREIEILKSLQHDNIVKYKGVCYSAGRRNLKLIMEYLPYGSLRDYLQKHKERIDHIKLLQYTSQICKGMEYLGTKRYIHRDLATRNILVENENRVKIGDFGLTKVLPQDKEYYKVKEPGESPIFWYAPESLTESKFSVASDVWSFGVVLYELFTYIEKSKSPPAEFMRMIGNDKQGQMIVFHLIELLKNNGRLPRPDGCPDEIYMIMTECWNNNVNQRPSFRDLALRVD
# [24] = biological target: T23, ARK5 (Homo sapiens, UniProt O60285); test: KinomeScan; assay type: binding; details: read-out: % Control
# T23 construct: purchased DiscoveRx (Fremont, CA)
# [25] = biological target: T24, JAK3(JH1domain-catalytic) (Homo sapiens, UniProt P52333); test: KinomeScan; assay type: binding; details: read-out: % Control
# T24 construct: JAK3(JH1domain-catalytic); purchased DiscoveRx (Fremont, CA)
# T24 sequence (P52333 822-1111 limits assumed): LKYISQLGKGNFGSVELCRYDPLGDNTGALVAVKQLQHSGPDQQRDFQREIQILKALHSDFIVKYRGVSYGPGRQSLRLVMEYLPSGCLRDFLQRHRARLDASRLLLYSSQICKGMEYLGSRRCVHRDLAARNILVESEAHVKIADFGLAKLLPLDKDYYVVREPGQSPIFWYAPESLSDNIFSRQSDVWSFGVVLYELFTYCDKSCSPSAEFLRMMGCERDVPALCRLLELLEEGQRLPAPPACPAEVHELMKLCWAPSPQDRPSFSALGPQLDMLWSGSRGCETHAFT
# [26] = biological target: T25, DRAK1 (Homo sapiens, UniProt Q9UEE5); test: KinomeScan; assay type: binding; details: read-out: % Control
# T25 construct: purchased DiscoveRx (Fremont, CA), KinomeScan service
# T25 sequence (Q9UEE5 whole entry): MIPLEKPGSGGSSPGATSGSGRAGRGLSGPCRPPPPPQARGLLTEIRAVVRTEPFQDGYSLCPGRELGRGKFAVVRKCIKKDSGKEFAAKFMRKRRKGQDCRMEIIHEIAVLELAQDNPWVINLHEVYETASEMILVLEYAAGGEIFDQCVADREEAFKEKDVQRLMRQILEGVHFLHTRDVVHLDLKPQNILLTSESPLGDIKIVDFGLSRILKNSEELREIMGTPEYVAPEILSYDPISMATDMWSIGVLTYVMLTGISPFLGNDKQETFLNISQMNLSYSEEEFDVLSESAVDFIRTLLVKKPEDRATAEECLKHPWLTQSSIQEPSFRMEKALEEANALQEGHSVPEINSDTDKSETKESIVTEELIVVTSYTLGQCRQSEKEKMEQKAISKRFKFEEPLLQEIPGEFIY
# [27] = biological target: T26, LIMK2 (Homo sapiens, UniProt P53671); test: KinomeScan; assay type: binding; details: read-out: % Control
# T26 construct: purchased DiscoveRx
# [28] = biological target: T27, CXCR3 (Homo sapiens, UniProt P49682); test: GPCR Profiler; assay type: cell-based
# T27 construct: host or cells: Chem-1 cells with Gα15
# T27 sequence (P49682 whole entry, species assumed): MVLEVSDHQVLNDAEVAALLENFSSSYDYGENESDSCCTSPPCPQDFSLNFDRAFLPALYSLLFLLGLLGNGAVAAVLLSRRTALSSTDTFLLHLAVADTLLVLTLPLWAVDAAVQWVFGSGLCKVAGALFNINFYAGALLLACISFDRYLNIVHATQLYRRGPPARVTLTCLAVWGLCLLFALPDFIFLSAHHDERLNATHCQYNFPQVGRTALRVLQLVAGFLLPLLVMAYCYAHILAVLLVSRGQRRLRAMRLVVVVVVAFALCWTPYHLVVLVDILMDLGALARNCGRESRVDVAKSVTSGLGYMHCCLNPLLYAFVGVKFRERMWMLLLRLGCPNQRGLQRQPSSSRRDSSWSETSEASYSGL
# [29] = test system: 6 independent patient derived lines (PDX and Neurospheres); test: 2D monolayer viability (Cell Titer-Glo); assay type: cell-based; details: Homo sapiens; range over the 6 lines; read-out: LC50 (the source's name)
# Method: GBM neurospheres and low passage PDX models were plated in 96-well plates at 10,000 cells per well in 50 μL of neural stem cell media. The next day, the cells were treated with OGM2 compounds at the indicated concentrations, in triplicates, by adding an equal volume of medium containing 2× the final concentration of compound. Following 72 hours incubation under standard cell culture conditions, relative cell number was assessed using Cell Titer-Glo Luminescent Cell Viability Assay (Promega™) following the manufacturer's instructions. Luminescence was determined using a Cytation 5 reader and Gen5 software package (BioTek™). For U87 and U138 cell lines, one thousand cells were plated per well in a standard 96-well plate and allowed to attach for 24 hours before exposure to concentrations of vehicle, OGM2, or TMZ. Cells were treated for 72 hours and then stained with DAPI. A 10× magnification lens on a LionheartFX (BioTek™) was used to image the wells, and images were stitched together with Gen5 software (BioTek™). Automated nuclei counting was also done using the Gen5 software. Results reported as percent response relative to DMSO control. IC50 (the concentration causing 50% inhibition) was determined by GraphPad Prism™ version 6.07.
# See FIG. 56, FIG. 55E, and FIG. 55F. […] Similarly.
structure (smiles),measurement,setting,value
"CCc1ccc2c(c1)C1(NN=C(c3cccc4ccccc34)S1)C(=O)N2 (stereo not drawn) [OGM1, 5-ethyl-5′-naphthalen-1-ylspiro[1H-indole-3,2′-3H-1,3,4-thiadiazole]-2-one]",remaining binding at 10 µM,[1],72%
same,Agonism,[2],16.8*
same,remaining binding at 10 µM,[3],100%
same,remaining binding at 10 µM,[4],100%
same,remaining binding at 10 µM,[5],100%
same,Antagonism,[6]; 10 uM,1.8
same,Agonism,[6]; 12.5 uM,0.1
same,remaining binding at 10 µM,[7],86%
same,Antagonism,[8]; 10 uM,11.4
same,Agonism,[8]; 12.5 uM,−0.5
same,remaining binding at 10 µM,[9],100%
same,remaining binding at 10 µM,[10],93%
same,remaining binding at 10 µM,[11],64%
same,remaining binding at 10 µM,[12],100%
same,remaining binding at 10 µM,[13],79%
same,remaining binding at 10 µM,[14],100%
same,remaining binding at 10 µM,[15],100%
same,Antagonism,[16]; 10 uM,−4.2
same,Agonism,[16]; 12.5 uM,0
same,Antagonism,[17]; 10 uM,0.5
same,Agonism,[17]; 12.5 uM,6.5
same,remaining binding at 10 µM,[18],100%
same,remaining binding at 10 µM,[19],64%
same,Antagonism,[20]; 10 uM,−8.1
same,Agonism,[20]; 12.5 uM,4.3
same,Antagonism,[21]; 10 uM,−10.9
same,Agonism,[21]; 12.5 uM,2.2
same,remaining binding at 10 µM,[22],84%
same,remaining binding at 10 µM,[23],100%
same,remaining binding at 10 µM,[24],80%
same,remaining binding at 10 µM,[25],84%
same,remaining binding at 10 µM,[26],100%
same,remaining binding at 10 µM,[27],100%
same,Antagonism,[28]; 10 uM,−2
same,Agonism,[28]; 12.5 uM,0.1
CCc1ccc2c(c1)C1(NN=C(c3ccccc3)S1)C(=O)N2 (stereo not drawn) [OGM2],CC50,[29],0.42 to 2.7 µM
